Like-named read-outs stand apart in the source and are kept apart here.
Biological target: recombinant eIF4E (Homo sapiens (Human), UniProt P06730)
Assay: Fluorescence polarization competition assay for eIF4E binding potency
How it was run: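 Competition of test compound against 20 nM EDA-m^7GDP-ATTO-550 for 75 nM recombinant eIF4E, pre-incubated 5 min, in 20 mM Tris pH 7.5, 100 mM NaCl, 1 mM DTT, 0.02% Tween-20, 1% DMSO. Equilibrated 30 min at room temperature, dark; fluorescence polarization read. IC50 from 8-point, 3-fold dilution series.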

[1] = inhibition of eIF4E/EDA-m7GDP-ATTO-550 binding, calculated IC50 values, Table 4B, read-out: IC50
[2] = fluorescence polarization competition, 75 nM recombinant eIF4E, 20 nM EDA-m7GDP-ATTO-550, IC50 class, read-out: elF4E FP
[3] = inhibition of eIF4E/EDA-m7GDP-ATTO-550 binding by 50%, Table 4B calculated values, read-out: IC50

recombinant eIF4E, sequence (P06730 whole entry): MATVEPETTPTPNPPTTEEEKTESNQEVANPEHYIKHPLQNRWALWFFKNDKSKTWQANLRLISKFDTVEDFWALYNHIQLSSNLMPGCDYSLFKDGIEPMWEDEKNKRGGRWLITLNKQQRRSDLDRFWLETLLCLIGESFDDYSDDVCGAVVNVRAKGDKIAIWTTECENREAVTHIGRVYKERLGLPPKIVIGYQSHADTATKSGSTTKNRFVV

SMILES | IC50 [1] [nM] | IC50 [2] [nM] | IC50 [3] [nM]
Cc1nc2cnc(N(C)C3CCN(CC(F)(F)C(F)F)CC3)c(C#N)c2c(=O)n1CC#Cc1ccc(Cl)cc1-c1ccnc2c(C(=O)NS(=O)(=O)c3cccnc3)csc12 [compound 1707] | 15.7 |  | 
COc1cncc(-c2c(C(F)(F)F)cc3nc(C)n(CCOc4ccc(Cl)cc4-c4cc(C)nc5c(C(=O)O)csc45)c(=O)c3c2C#N)c1 [Compound 1060] |  | 50 to 1000 | 50.9
Cc1cc(-c2cc(Cl)ccc2OCCn2c(C)nc3c(=O)n(C)c(-c4ccccc4)c(C#N)c3c2=O)c2scc(C(=O)O)c2n1 [compound 1193] |  | < 50 | 
Cc1nc2cnc(C#CCN(C)CCF)c(C#N)c2c(=O)n1CCOc1ccc(Cl)cc1-c1ccnc2c(C(=O)O)csc12 [compound 1326] | 12.8 |  | 
Cc1cc(-c2cc(Cl)ccc2C#CCn2c(C)nc3cc(C(F)(F)F)cc(C#N)c3c2=O)c2scc(C(=O)O)c2n1 [compound 560] |  | < 50 | 4.77
CCc1nc(C)c2nc(C)n(CCOc3ccc(Cl)cc3-c3ccnc4c(C(=O)O)csc34)c(=O)c2c1C#N [compound 851] |  | < 50 | 6.02
Cc1c([N+](=O)O)c2cc(C(F)(F)F)cc(C#N)c2c(=O)n1CCOc1ccc(Cl)cc1-c1ccnc2c(C(=O)O)csc12 [compound 270] |  | < 50 | 
Cc1nc2cnc(C3=CCN(CCF)CC3)c(C#N)c2c(=O)n1CC#Cc1ccc(Cl)cc1-c1ccnc2c(C(=O)O)csc12 [compound 1462] | 20.1 |  | 
Cc1cc(-c2cc(Cl)ccc2OCCn2c(C)nc3c(C)nc(-c4c(F)cccc4F)c(C#N)c3c2=O)c2scc(C(=O)O)c2n1 [compound 1622] | 17.3 |  | 
Cc1cc(-c2cc(Cl)ccc2OCCn2c(C)nc3c(C)nc(-c4cccc(C(F)(F)F)c4)c(C#N)c3c2=O)c2scc(C(=O)O)c2n1 [compound 925] |  | < 50 | 43.1
Cc1cc(-c2cc(Cl)ccc2OCCn2c(C)nc3cc(C(F)(F)F)c(-c4cnccc4C)c(C#N)c3c2=O)c2scc(C(=O)O)c2n1 [compound 736] |  | < 50 | 17
Cc1ccc(-c2cc(Cl)ccc2OCCn2c(C)nc3ccc(CCN(C)C)c(C#N)c3c2=O)c2scc(C(=O)O)c12 [compound 576] |  | < 50 | 17.7
Cc1nc2cnc(N3CCN(C4CC4)CC3)c(C#N)c2c(=O)n1CCOc1ccc(Cl)cc1-c1ccnc2c(C(=O)O)csc12 [compound 1306] | 38.9 |  | 
Cc1nc2cnc(N(C)C3CCN(C)CC3)c(C#N)c2c(=O)n1CC#Cc1ccc(Cl)cc1-c1ccnc2c(C(=O)O)csc12 [compound 1495] | 7.09 |  | 
N#Cc1cncc2ncn(CCOc3ccc(Cl)cc3-c3cccc(C(=O)O)c3)c(=O)c12 [compound 34] |  | 50 to 1000 | 88.5
Cc1nc2cc(C(F)(F)F)cc(C#N)c2c(=O)n1CCOc1ccc(Cl)cc1-c1cc(C#N)nc2c(C(=O)O)csc12 [compound 446] |  | 50 to 1000 | 
Cc1nc2cc(C(F)(F)F)c(N3CCN(C)CC3)c(C#N)c2c(=O)n1CCOc1ccc(Cl)cc1-c1ccnc2c(-c3nn[nH]n3)csc12 [compound 1228] | 1.11 | < 50 | 
Cc1sc2c(-c3cc(Cl)ccc3OCCn3c(C)nc4cc(C(F)(F)F)c(C)c(C#N)c4c3=O)cn(C)c(=O)c2c1C(=O)O [compound 899] |  | < 50 | 7.44
Cc1nc2cnc(N3CCC(N4CC(F)(F)C4)CC3)c(C#N)c2c(=O)n1CC#Cc1ccc(Cl)cc1-c1ccnc2c(C(=O)O)csc12 [compound 1467] | 11 |  | 
Cc1nc2ccc(S(=O)(=O)N3CCCC3)c(C#N)c2c(=O)n1CCOc1ccc(Cl)cc1-c1ccnc2c(C(=O)O)csc12 [compound 249] |  | < 50 | 19.8
Cc1nc2cnc(N(C)C3CCN(C4CC(F)(F)C4)CC3)c(C#N)c2c(=O)n1CC#Cc1ccc(Cl)cc1-c1ccnc2c(C(=O)NS(=O)(=O)C3CCC3)csc12 [compound 1810] | 12.9 |  | 
Cc1cc(-c2cc(Cl)ccc2OCCn2c(C)nc3cc(C(F)(F)F)c(CN4CCN(C(C)(C)C)CC4)c(C#N)c3c2=O)c2scc(C(=O)O)c2n1 [compound 738] |  | < 50 | 19.3
O=C(O)c1cccc(-c2cc(Cl)ccc2OCCn2ccc3nnccc3c2=O)c1 [compound 15] |  | > 1000 | 1740
Cc1nc2cc(C(F)(F)F)cc(C#N)c2c(=O)n1CCOc1ccc(Cl)cc1-c1cccc2c(C(=O)O)c[nH]c12 [compound 322] |  | 50 to 1000 | 116
Cc1nc2cnc(C3=CCNCC3)c(C#N)c2c(=O)n1CCOc1ccc(Cl)cc1-c1ccnc2c(C(=O)O)csc12 [compound 1626] | 30.3 |  | 
N#Cc1cc2c(=O)n(C[C@@H]3C[C@H]3c3ccc(Cl)cc3-c3cccc(C(=O)O)c3)cnc2cn1 [compound 43] |  | > 1000 | > 10000
Cc1nc2cnc(N(C)C3CCN(CC(F)(F)C(F)F)CC3)c(C#N)c2c(=O)n1CC#Cc1ccc(Cl)cc1-c1ccnc2c(C(=O)NS(=O)(=O)C3COC3)csc12 [compound 1704] | 6.54 |  | 

SMILES | IC50 [1] [nM] | IC50 [2] [nM] | IC50 [3] [nM]
Cc1cc(-c2c(C(F)(F)F)cc3nc(C)n(CCOc4ccc(Cl)cc4-c4cc(C)nc5c(C(=O)O)csc45)c(=O)c3c2C#N)cc(CF)n1 [compound 934] |  | < 50 | 13.6
Cc1cc(-c2cc(Cl)ccc2OCCn2c(C)nc3cc(C(F)F)c(-c4cncc(F)c4)c(C#N)c3c2=O)c2scc(C(=O)O)c2n1 [compound 1387] | 22.8 |  | 
Cc1nc2c(C(F)(F)F)cc(N3CCN(C)CC3)nc2c(=O)n1CC#Cc1ccc(Cl)cc1-c1ccnc2c(C(=O)O)csc12 [compound 1981] | 23.8 |  | 
Cc1nc2cnc(C3CCC(F)(F)CC3)c(C#N)c2c(=O)n1CC#Cc1ccc(Cl)cc1-c1ccnc2c(C(=O)O)csc12 [compound 1481] | 20.8 |  | 
Cc1nc2cc(C(F)(F)F)cc(C#N)c2c(=O)n1CCOc1ccc(Cl)cc1-c1ccnc2c(C(=O)O)c[nH]c12 [compound 323] |  | 50 to 1000 | 82.6
Cc1nc2cc(Cl)c(Cl)c(C#N)c2c(=O)n1CCOc1ccc(C#N)cc1-c1ccnc2c(C(=O)O)csc12 [compound 290] |  | < 50 | 42.7
Cc1cc(-c2cc(Cl)ccc2OCCn2c(C)nc3cc(Cl)c(N4CCC(F)(F)CC4)c(C#N)c3c2=O)c2scc(C(=O)O)c2n1 [compound 919] |  | < 50 | 17.7
CCN(c1ncc2nc(C)n(CC#Cc3ccc(Cl)cc3-c3ccnc4c(C(=O)NS(=O)(=O)CC(C)(C)C#N)csc34)c(=O)c2c1C#N)C1CCN(C2COC2)CC1 [compound 1737] | 14.3 |  | 
O=C(O)c1cccc(-c2cc(Cl)ccc2OCCn2c(Nc3ccccc3)nc3c(O)nccc3c2=O)c1 [compound 2000] | 18200 |  | 
Cc1nc2cnc(N(C)C3CCN(CCC(F)(F)F)CC3)c(C#N)c2c(=O)n1CC#Cc1ccc(Cl)cc1-c1ccnc2c(C(=O)O)csc12 [compound 1520] | 17.9 |  | 
Cc1nc2cnc(N(C)C3CCN(C(CF)CF)CC3)c(C#N)c2c(=O)n1CCOc1ccc(Cl)cc1-c1ccnc2c(C(=O)O)csc12 [compound 1432] | 21.2 |  | 
CCc1cc(-c2cc(Cl)ccc2OCCn2c(C)nc3cc(C(F)(F)F)c(-c4cc(F)cnc4C)c(C#N)c3c2=O)c2scc(C(=O)O)c2n1 [compound 1017] |  | < 50 | 8.26
Cc1nc2cnc(N3CCN(CC(F)F)CC3)c(C#N)c2c(=O)n1CCOc1ccc(Cl)cc1-c1ccnc2c(C(=O)O)csc12 [compound 1303] | 36.6 |  | 
Cc1cc(-c2cc(Cl)ccc2OCCn2c(C)nc3cc(C(F)F)c(O)c(C#N)c3c2=O)c2scc(C(=O)O)c2n1 [439b] |  |  | 32
CCC(F)(CC)CN1CCN(c2ncc3nc(C)n(CCOc4ccc(Cl)cc4-c4ccnc5c(C(=O)O)csc45)c(=O)c3c2C#N)CC1 [compound 1469] | 23 |  | 
N#Cc1cc(C(=O)O)cc(-c2cc(Cl)ccc2OCCn2cnc3cnc(C#N)cc3c2=O)c1 [compound 93] |  | > 1000 | 1400
N#Cc1cc2c(=O)n(CCOc3ccc(O)cc3-c3cccc(C(=O)O)c3)cnc2cn1 [compound 125] |  | > 1000 | > 3000
Cc1nc2cc(F)c(OC(F)F)c(C#N)c2c(=O)n1CCOc1ccc(Cl)cc1-c1ccnc2c(C(=O)O)csc12 [compound 545] |  | < 50 | 7.81
Cc1nc2cnc(N(C)C3CCN(CC(F)(F)C4(O)CCC4)CC3)c(C#N)c2c(=O)n1CC#Cc1ccc(Cl)cc1-c1ccnc2c(C(=O)O)csc12 [compound 1598] | 37.5 |  | 
COCc1ncc(C#N)c2c(=O)n(CCOc3ccc(Cl)cc3-c3ccc(C)c4c(C(=O)O)csc34)c(C)nc12 [compound 727] |  | < 50 | 29.4
Cc1nc2c(N3CCN(CCCC(F)(F)F)CC3)ncc(C#N)c2c(=O)n1CCOc1ccc(Cl)cc1-c1ccnc2c(C(=O)O)csc12 [compound 843] |  | < 50 | 13.1
Cc1cc(-c2cc(Cl)ccc2OCCn2c(C)nc3cnc(N4C[C@H]5C[C@@H](C4)N5C)c(C#N)c3c2=O)c2sc(C)c(C(=O)O)c2n1 [compound 1202] | 19.7 | < 50 | 
Cc1cc(-c2cc(Cl)ccc2OCCn2c(C)cc3cnc(N(C)C)c(C#N)c3c2=O)c2scc(C(=O)O)c2n1 [compound 1002] |  | < 50 | 2.37
Cc1csc2c(-c3cc(Cl)ccc3OCCn3c(C)nc4cc(C(F)(F)F)c(N5CCN(C)CC5)c(C#N)c4c3=O)ccnc12 [compound 1249] | 75.9 | 50 to 1000 | 
Cc1nc2cnc(N3CCN(CCCC(F)(F)F)CC3)c(C#N)c2c(=O)n1CC#Cc1ccc(Cl)cc1-c1ccnc2c(C(=O)O)csc12 [compound 1458] | 19.1 |  | 
Cc1cc(-c2cc(Cl)ccc2OCCn2c(C)nc3cc(Cl)c(N4CC(C)(CO)C4)c(C#N)c3c2=O)c2scc(C(=O)O)c2n1 [compound 703] |  | < 50 | 3.18

Source: patent US11286268B1, “EIF4E-inhibiting compounds and methods” (EFFECTOR THERAPEUTICS, INC., priority 2019, dated 2022)
